Molecular target: T1, L‐type Ca^2+ channel current (I CaL) (Rattus norvegicus, UniProt P22002)
T1 construct: the inward calcium current (ICaL) in isolated rat cardiomyocytes; endogenous in cells; host or cells: freshly isolated left ventricular cardiomyocytes of male Wistar rats
Assay: L‐type calcium current (I CaL), patch‐clamp in rat ventricular myocytes
Type: cell-based
Conditions: for effect on calcium current (ICaL) at various test potentials: rat cardiomyocytes; for inhibition at 10 µM: rat ventricular CMs
Description: Manual patch‐clamp recordings of membrane currents (I NCX, L‐type Ca^2+ channel current [I CaL], human cardiac sodium 1.5 current [I Na], and I hERG) were undertaken using either an Axopatch 200B or Axopatch ID amplifier (Molecular Devices, USA), using the whole‐cell configuration. Cells were at least initially (except when recording I Na) perfused with an extracellular solution consisting of (in mM) 143 NaCl, 4 KCl, 1.8 CaCl2, 1.2 MgCl2, 5 glucose, and 10 HEPES (pH 7.4 with NaOH; osmolarity adjusted to 301 ± 3 mOsm). A slightly modified version was used for the rat ventricular CMs (in mM: 144 NaCl, 0.4 NaH2PO4, 4.0 KCl, 1.8 CaCl2, 0.53 MgSO4, 5.5 glucose, and 5.0 HEPES). Patch pipettes were pulled with a P‐2000 or P‐97 micropipette puller (Sutter Instruments, USA) from borosilicate glass capillaries and had resistances of between 2 and 4 MΩ when filled with any of the pipette solutions (see below). The data were filtered at 1 or 2 kHz and digitized at 10 kHz with acquisition and analysis performed by use of pClamp software (Versions 8–10; Molecular Devices; RRID:SCR_011323).
I CaL was recorded from hiPSC‐derived CMs (at room temperature, n = 2) and rat ventricular myocytes at 1 μM (n = 3; 5 cells) and at 10 μM (n = 4; 6 cells) in an extracellular solution supplemented with 4‐aminopyridine (3 mM) at 37 °C. The pipette solution used for hiPSC‐derived CMs consisted (in mM) (pH 7.2; osmolarity adjusted to 293 mOsm) 110 KCl, 40 KOH, 20 TEACI, 3 MgATP, 10 EGTA, and 5 HEPES. The composition of the pipette solution used for rat CMs was (in mM) 125 CsCl, 20 TEACI, 5 MgATP, 10 EGTA, and 10 HEPES; the pH was adjusted to 7.2 using CsOH. I CaL was evoked by a 400‐ms depolarization process to 0 mV from a holding potential of −40 mV every 5 s or, in the case of the rat CMs, by 400 ms; depolarizations to potentials ranging from −35 to 55 mV occurred after a prepulse to −40 mV, from the holding potential of −80 mV.
The effect of ORM-11372 on the inward calcium current (ICaL) in isolated rat cardiomyocytes. ICaL current was evoked by 400 ms-long depolarizing voltage pulses to various test potentials, ranging from -35 mV to 55 mV. The holding potential was -80 mV. A short prepulse to -40 mV served to inactivate the Na+ current (the top part of the panel A). Examples of originals currents are shown in the lower part of panel A, before and after 1 µM ORM-11372 exposure in an isolated rat myocyte. Panels B and C illustrate the current-voltage relation (I-V curves) of ICaL in the absence and presence of 1 µM and 10 µM ORM-11372 (panels B and C, […]
are means ± standard errors of the means.
(1 picture or pasted object on this page, not shown here)

T1 sequence (P22002 whole entry, other chains not shown): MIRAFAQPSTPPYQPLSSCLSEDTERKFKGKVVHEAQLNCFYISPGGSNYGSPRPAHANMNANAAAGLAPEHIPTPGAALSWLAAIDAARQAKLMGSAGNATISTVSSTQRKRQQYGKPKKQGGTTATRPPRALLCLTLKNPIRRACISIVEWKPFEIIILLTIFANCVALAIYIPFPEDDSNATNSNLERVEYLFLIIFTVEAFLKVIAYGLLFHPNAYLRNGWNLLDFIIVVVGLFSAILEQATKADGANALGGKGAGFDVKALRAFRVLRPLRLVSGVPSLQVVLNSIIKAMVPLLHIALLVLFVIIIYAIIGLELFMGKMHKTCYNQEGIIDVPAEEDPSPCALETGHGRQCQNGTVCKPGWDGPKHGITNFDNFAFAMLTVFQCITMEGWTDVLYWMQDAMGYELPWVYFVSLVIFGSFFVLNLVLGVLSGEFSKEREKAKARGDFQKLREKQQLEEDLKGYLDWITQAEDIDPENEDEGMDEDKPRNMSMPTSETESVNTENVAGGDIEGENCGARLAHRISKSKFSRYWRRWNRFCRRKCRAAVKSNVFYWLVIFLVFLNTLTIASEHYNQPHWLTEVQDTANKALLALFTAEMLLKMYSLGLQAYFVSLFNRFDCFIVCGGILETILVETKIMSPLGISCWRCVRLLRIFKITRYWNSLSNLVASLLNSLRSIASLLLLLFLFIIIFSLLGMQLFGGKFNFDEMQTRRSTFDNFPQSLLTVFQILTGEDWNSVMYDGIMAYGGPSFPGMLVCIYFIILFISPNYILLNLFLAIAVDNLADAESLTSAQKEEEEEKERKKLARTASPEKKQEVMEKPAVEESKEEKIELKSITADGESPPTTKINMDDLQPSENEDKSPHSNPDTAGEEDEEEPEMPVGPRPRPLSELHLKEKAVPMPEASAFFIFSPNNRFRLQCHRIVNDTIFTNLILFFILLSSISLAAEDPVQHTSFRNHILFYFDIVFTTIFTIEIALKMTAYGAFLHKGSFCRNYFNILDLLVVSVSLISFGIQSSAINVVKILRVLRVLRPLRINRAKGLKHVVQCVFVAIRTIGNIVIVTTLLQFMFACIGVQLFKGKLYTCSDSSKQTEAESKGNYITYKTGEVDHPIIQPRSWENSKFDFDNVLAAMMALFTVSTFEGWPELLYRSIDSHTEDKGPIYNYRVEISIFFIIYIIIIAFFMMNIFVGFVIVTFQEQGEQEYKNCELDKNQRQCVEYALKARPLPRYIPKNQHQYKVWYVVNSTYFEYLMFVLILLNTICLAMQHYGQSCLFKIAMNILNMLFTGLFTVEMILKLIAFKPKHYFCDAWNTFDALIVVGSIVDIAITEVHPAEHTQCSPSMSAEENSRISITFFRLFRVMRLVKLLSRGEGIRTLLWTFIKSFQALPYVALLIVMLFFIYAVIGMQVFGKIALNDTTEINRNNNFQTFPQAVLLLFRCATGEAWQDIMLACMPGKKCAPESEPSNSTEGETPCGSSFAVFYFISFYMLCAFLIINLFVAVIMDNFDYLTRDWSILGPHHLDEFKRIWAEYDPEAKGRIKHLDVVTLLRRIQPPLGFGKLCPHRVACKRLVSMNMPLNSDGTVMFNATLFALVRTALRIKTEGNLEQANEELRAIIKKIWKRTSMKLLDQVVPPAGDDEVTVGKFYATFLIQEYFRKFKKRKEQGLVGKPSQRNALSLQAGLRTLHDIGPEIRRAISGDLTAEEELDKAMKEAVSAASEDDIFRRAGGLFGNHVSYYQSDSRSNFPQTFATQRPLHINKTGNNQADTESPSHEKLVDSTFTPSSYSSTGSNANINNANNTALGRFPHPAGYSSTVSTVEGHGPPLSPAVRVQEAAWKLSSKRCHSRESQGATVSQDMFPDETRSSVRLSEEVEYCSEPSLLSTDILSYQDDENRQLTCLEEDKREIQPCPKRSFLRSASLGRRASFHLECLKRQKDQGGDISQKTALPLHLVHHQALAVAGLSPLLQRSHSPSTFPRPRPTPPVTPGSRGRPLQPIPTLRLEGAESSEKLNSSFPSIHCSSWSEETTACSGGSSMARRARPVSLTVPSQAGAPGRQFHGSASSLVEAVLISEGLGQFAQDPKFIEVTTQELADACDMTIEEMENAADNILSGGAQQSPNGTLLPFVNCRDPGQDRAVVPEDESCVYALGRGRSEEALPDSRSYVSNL
T1 sequence (P54290 25-1091 partner, other chains not shown): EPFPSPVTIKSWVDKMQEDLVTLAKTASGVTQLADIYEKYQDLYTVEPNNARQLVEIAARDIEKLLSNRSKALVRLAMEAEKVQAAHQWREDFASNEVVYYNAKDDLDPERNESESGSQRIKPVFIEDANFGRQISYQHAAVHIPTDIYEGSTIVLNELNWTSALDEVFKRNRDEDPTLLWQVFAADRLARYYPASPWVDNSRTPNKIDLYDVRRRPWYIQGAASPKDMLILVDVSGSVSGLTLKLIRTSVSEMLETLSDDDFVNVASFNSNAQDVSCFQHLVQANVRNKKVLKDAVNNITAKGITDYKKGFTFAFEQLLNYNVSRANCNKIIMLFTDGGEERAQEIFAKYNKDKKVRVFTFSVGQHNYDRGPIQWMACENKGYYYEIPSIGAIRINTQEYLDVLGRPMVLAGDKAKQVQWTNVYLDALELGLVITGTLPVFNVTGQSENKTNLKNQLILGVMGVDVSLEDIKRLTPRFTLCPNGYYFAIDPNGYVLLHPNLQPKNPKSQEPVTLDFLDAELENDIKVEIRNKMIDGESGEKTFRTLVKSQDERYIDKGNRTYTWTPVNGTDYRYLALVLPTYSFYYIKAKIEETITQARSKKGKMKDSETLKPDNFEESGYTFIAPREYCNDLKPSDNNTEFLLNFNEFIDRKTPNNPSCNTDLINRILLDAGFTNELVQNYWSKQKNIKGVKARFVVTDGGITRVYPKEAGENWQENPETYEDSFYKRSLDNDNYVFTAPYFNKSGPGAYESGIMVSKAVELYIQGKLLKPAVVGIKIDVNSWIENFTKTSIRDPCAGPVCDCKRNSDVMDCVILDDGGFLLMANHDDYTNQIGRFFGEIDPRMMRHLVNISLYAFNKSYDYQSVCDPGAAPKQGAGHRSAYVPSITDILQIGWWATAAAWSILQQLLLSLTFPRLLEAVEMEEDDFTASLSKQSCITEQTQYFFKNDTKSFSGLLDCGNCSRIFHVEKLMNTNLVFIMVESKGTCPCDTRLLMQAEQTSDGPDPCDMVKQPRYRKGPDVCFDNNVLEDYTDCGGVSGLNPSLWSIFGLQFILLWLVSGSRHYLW

Compound: Nc1cccc(-c2ccc(CNc3ccc(F)cc3)o2)c1 [ORM‐11372]
- effect on calcium current (ICaL) at various test potentials (1 µM, n=3, 5 cells): did not change
- L-type calcium current amplitude, MEAN (1 µM, test potential 0 mV, 5 cells, control -1375.4): -1268.0 pA
- L-type calcium current amplitude, MEAN (1 µM, test potential 5 mV, 5 cells, control -1319.9): -1233.1 pA
- L-type calcium current amplitude, MEAN (1 µM, test potential 10 mV, 5 cells, control -1195.5): -1106.0 pA
- L-type calcium current amplitude, MEAN (1 µM, test potential 15 mV, 5 cells, control -1031.3): -942.5 pA
- L-type calcium current amplitude, MEAN (1 µM, test potential 20 mV, 5 cells, control -839.7): -771.6 pA
- L-type calcium current amplitude, MEAN (1 µM, test potential 25 mV, 5 cells, control -655.3): -598.7 pA
- L-type calcium current amplitude, MEAN (1 µM, test potential 30 mV, 5 cells, control -482.4): -440.5 pA
- L-type calcium current amplitude, MEAN (1 µM, test potential 35 mV, 5 cells, control -321.0): -290.5 pA
- L-type calcium current amplitude, MEAN (1 µM, test potential 40 mV, 5 cells, control -184.5): -165.5 pA
- L-type calcium current amplitude, MEAN (1 µM, test potential 45 mV, 5 cells, control -86.9): -75.9 pA
- L-type calcium current amplitude, MEAN (1 µM, test potential 50 mV, 4 cells, control -2.1): -6.3 pA
- L-type calcium current amplitude, MEAN (1 µM, test potential 55 mV, 4 cells, control 73.5): 65.1 pA
- L-type calcium current amplitude, MEAN (1 µM, test potential -5 mV, 5 cells, control -1356.0): -1228.2 pA
- L-type calcium current amplitude, MEAN (1 µM, test potential -10 mV, 5 cells, control -1170.3): -1150.4 pA
- L-type calcium current amplitude, MEAN (1 µM, test potential -15 mV, 5 cells, control -958.3): -852.5 pA
- L-type calcium current amplitude, MEAN (1 µM, test potential -20 mV, 5 cells, control -659.5): -595.2 pA
- L-type calcium current amplitude, MEAN (1 µM, test potential -25 mV, 5 cells, control -416.8): -428.2 pA
- L-type calcium current amplitude, MEAN (1 µM, test potential -30 mV, 5 cells, control -247.1): -254.7 pA
- L-type calcium current amplitude, MEAN (1 µM, test potential -35 mV, 5 cells, control -143.0): -137.4 pA
- effect on calcium current (ICaL) at various test potentials (10 µM, n=4, 6 cells): significantly decreased
- effect on calcium current (ICaL) at various test potentials (10 µM, n=4, 6 cells, listed as ORM-11372): moderately decreased
- L-type calcium current amplitude, MEAN (10 µM, test potential 0 mV, 6 cells, control -1895.4): -1170.0 pA
- L-type calcium current amplitude, MEAN (10 µM, test potential 5 mV, 6 cells, control -1875.0): -1197.8 pA
- L-type calcium current amplitude, MEAN (10 µM, test potential 10 mV, 6 cells, control -1771.9): -1118.9 pA
- L-type calcium current amplitude, MEAN (10 µM, test potential 15 mV, 6 cells, control -1587.7): -1003.2 pA
- L-type calcium current amplitude, MEAN (10 µM, test potential 20 mV, 6 cells, control -1357.7): -873.9 pA
- L-type calcium current amplitude, MEAN (10 µM, test potential 25 mV, 6 cells, control -1116.0): -718.1 pA
- L-type calcium current amplitude, MEAN (10 µM, test potential 30 mV, 6 cells, control -896.3): -561.5 pA
- L-type calcium current amplitude, MEAN (10 µM, test potential 35 mV, 6 cells, control -698.8): -429.4 pA
- L-type calcium current amplitude, MEAN (10 µM, test potential 40 mV, 6 cells, control -525.3): -320.9 pA
- L-type calcium current amplitude, MEAN (10 µM, test potential 45 mV, 6 cells, control -374.5): -237.0 pA
- L-type calcium current amplitude, MEAN (10 µM, test potential 50 mV, 6 cells, control -291.0): -189.1 pA
- L-type calcium current amplitude, MEAN (10 µM, test potential 55 mV, 6 cells, control -158.4): -114.5 pA
- L-type calcium current amplitude, MEAN (10 µM, test potential -5 mV, 6 cells, control -1762.2): -1043.1 pA
- L-type calcium current amplitude, MEAN (10 µM, test potential -10 mV, 6 cells, control -1447.7): -807.4 pA
- L-type calcium current amplitude, MEAN (10 µM, test potential -15 mV, 6 cells, control -1127.6): -525.5 pA
- L-type calcium current amplitude, MEAN (10 µM, test potential -20 mV, 6 cells, control -920.0): -316.1 pA
- L-type calcium current amplitude, MEAN (10 µM, test potential -25 mV, 6 cells, control -667.6): -184.1 pA
- L-type calcium current amplitude, MEAN (10 µM, test potential -30 mV, 6 cells, control -368.9): -115.9 pA
- L-type calcium current amplitude, MEAN (10 µM, test potential -35 mV, 6 cells, control -156.2): -64.1 pA
- inhibition at 1 µM (rat CMs, 1 μM, 0 mV, read-out: inhibition of inward I CaL): 7.8%
- inhibition at 10 µM (test potentials 0 to 40 mV): 36 to 39%
- inhibition at 10 µM (test potentials −35 to −20 mV): 59 to 69%
